In patent US9187477B2, “Azabenzimidazole derivatives” (Boehringer Ingelheim International GmbH, priority 2013, dated 2015):

Experiments:
[1] = biological target: AMPK complex 1 (containing alpha1beta1gamma1) (Homo sapiens (Human), UniProt Q13131+Q9Y478); experiment: in vitro AMPK activation assay (ADP-Glo Kinase Assay); assay type: biochemical; settings: AMPK alpha1beta1gamma1, ATP 30 μM, peptide 1 μM, 60 min, room temperature
Text: Activated AMPK complex 1 (containing alpha1beta1gamma1) was obtained from baculovirus expression system. The gene encoding AMPK alpha1 was cloned into the pACG2T vector (BD Biosciences) to obtain a N-terminal Glutathion S transferase (GST)-fusion protein. The genes encoding AMPK beta1 and gamma1 were cloned into the p2Bac dual multiple cloning site vector (Invitrogen) with beta1 under the control of the p10 promoter and gamma1 under the control of the PH promoter. The transfer vectors containing AMPK were co-transfected individually with AcPNV BacMagic-3 DNA (EMD Millipore) in Sf9 cells and the recombinant baculoviruses were harvested after 5 days, followed by 3 rounds of amplification of the virus stock in Sf9 cells. AMPK (alpha1beta1gamma1) was expressed in High Five 5 cells by co-infection of recombinant alpha1 virus and recombinant beta1/gamma1 virus for 72 h at 27° C. Cells were harvested by centrifugation and lysed by 3 freeze/thaw cycles in PBS with 10% glycerol and protease inhibitor cocktail (Roche). After centrifugation AMPK a1b1g1 in the supernatant was captured by immobilized glutathione (GE Healthcare), impurities were washed away with PBS and AMPK alpha1beta1gamma1 was eluted with PBS containing 20 mM reduced gluthathione. The protein buffer was then exchanged to PBS with 10% glycerol and protein concentration was determined by UV absorbance.
The white 384-well Optiplates (cat. no. 6007299) were purchased from PerkinElmer. The V9101 ADP-Glo Kinase Assay and ultra pure ATP (V915A) was purchased from Promega. The substrate for AMPK (NH2-HMRSAMSGLHLVKRR_CONH2) was purchased from Upstate (12-355).
Compounds were tested in either serial dilutions or single dose concentrations. The serial compound dilutions were prepared in 100% DMSO automatically. The final DMSO concentration in the assay was 0.1%.
The Compound Stock Solutions were 10 mM in 100% DMSO. The compounds were solubilised at room temperature.
In the 384-well plates 1.25 ul of test compound in assay buffer was mixed with 1.25 ul of AMPK and 1.25 μl of the peptide (final concentration of 1 μM) and 1.25 μl of ATP (final concentration of 30 μM), both dissolved in assay buffer. This step was followed by an incubation time of 60 min. Then 5 μl of ADP Glo Reagent was added. This was followed by 40 min of incubation. Then 10 μl of Kinase Detection Reagent was admixed. The plates were sealed and after an incubation period of 30 min, the luminescence signal was measured in an Envision reader. All incubation steps were accomplished at room temperature.
Each assay microtiter plate contained wells with vehicle controls instead of compound (0.1% DMSO in water) as reference for the low signal (100% CTL, low signal), and wells with serial dilutions of AMP (final 30 μM) as reference for high signals.
The luminescence signal generated was proportional to the ADP concentration produced and was correlated with AMPK activity. The analysis of the data was performed by the calculation of the percentage of ATP consumption of AMPK in the presence of the test compound compared to the consumption of ATP in the presence of AMPK without compound. (RLU(sample)/RLU(low control))*100[RLU=relative luminescence units]
An activator of the AMPK enzyme gave values above 100% CTL.
EC50 values based on dose response curves are calculated with the XIFIT software using the 4 Parameter Logistic Model or Sigmoidal Dose-Response Model.

[2] = Metabolic stability: metabolic degradation with pooled human liver microsomes; assay type: in vitro ADME; settings: for c (control) (metabolic stability), remaining test compound after NADPH independent incubation: incubation without NADPH, after 2 hours, human liver microsomes; for t1/2 INVITRO: pooled human liver microsomes 1 mg/ml, 37° C., test compound 1 μM, NADPH 1 mM
Description: The metabolic degradation of the test compound is assayed at 37° C. with pooled human liver microsomes. The final incubation volume of 100 μl per time point contains TRIS buffer pH 7.6 at room temperature (0.1 M), magnesium chloride (5 mM), microsomal protein (1 mg/ml) and the test compound at a final concentration of 1 μM.
Following a short preincubation period at 37° C., the reactions were initiated by addition of beta-nicotinamide adenine dinucleotide phosphate, reduced form (NADPH, 1 mM) and terminated by transferring an aliquot into solvent after different time points.
Additionally, the NADPH-independent degradation was monitored in incubations without NADPH, terminated at 2 hour time point. The [%] remaining test compound after NADPH independent incubation is reflected by the parameter c (control) (metabolic stability). A c (control) (metabolic stability) value around 100% excludes cofactor independent activities (e.g. from esterases).
The quenched incubations are pelleted by centrifugation (10000 g, 5 min).
An aliquot of the supernatant is assayed by LC-MS/MS for the amount of parent compound. The half-life (t1/2 INVITRO) is determined by the slope of the semilogarithmic plot of the concentration-time profile.

Chain of AMPK complex 1 (containing alpha1beta1gamma1) (Q13131 whole entry, the tested form may be a part): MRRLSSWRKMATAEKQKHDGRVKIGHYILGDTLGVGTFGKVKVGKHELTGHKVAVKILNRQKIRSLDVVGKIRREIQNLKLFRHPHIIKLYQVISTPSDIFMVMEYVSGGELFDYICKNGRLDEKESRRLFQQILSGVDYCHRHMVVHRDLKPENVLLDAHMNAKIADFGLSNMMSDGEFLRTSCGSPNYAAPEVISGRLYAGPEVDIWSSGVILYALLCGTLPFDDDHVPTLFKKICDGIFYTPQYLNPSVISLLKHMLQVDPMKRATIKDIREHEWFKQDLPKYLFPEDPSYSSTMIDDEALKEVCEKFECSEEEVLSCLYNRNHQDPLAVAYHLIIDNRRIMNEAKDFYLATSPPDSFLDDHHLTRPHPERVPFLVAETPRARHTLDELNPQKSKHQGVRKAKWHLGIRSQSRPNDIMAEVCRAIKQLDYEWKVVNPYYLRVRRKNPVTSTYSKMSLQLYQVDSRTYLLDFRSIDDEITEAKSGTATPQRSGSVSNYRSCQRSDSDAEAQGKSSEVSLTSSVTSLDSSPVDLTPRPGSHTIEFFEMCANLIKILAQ
Chain of AMPK complex 1 (containing alpha1beta1gamma1) (Q9Y478 whole entry, the tested form may be a part): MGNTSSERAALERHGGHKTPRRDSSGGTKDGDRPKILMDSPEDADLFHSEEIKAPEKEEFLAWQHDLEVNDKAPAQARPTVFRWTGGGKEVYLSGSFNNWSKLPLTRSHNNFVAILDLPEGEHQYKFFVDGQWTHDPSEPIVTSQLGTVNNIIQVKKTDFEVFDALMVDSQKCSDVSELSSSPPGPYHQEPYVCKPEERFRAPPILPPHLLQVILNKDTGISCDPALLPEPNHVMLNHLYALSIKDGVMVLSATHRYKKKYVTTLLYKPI
Chain of AMPK complex 1 (containing alpha1beta1gamma1) (P54619 whole entry partner, the tested form may be a part): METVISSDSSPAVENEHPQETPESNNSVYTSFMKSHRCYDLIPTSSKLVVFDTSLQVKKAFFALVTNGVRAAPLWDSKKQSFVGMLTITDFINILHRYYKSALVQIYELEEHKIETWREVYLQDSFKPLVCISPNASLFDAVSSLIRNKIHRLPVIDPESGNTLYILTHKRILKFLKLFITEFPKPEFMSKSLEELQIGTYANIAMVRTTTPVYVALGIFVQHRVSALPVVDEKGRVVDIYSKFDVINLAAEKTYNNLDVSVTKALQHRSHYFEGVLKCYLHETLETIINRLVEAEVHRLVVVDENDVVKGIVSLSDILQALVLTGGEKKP

c (control) (metabolic stability), remaining test compound after NADPH independent incubation [2]	t1/2 INVITRO [2]	SMILES	EC50 [1]
102%	>2.17 h	CC(C)NC(=O)O[C@H]1CC[C@H](c2ccc(-c3nc4[nH]c(O[C@@H]5CO[C@H]6[C@@H]5OC[C@H]6O)nc4cc3Cl)cc2)CC1 [Example 8, (trans)-4-(4-(6-Chloro-2-((3R,3aR,6R,6aR)-6-hydroxyhexahydrofuro[3,2-b]furan-3-yloxy)-3H-imidazo[4,5-b]pyridin-5-yl)phenyl)cyclohexyl isopropylcarbamate]	339 nM
–	–	CC(C)OC(=O)NC1CCN(c2ccc(-c3nc4[nH]c(O[C@@H]5CO[C@H]6[C@@H]5OC[C@H]6O)nc4cc3Cl)cc2)CC1 [Example 16, Isopropyl 1-(4-(6-chloro-2-((3R,3aR,6R,6aR)-6-hydroxyhexahydrofuro[3,2-b]furan-3-yloxy)-3H-imidazo[4,5-b]pyridin-5-yl)phenyl)piperidin-4-ylcarbamate]	290 nM
–	–	CC(C)NC(=O)OC1CCN(c2ccc(-c3nc4[nH]c(O[C@@H]5CO[C@H]6[C@@H]5OC[C@H]6O)nc4cc3Cl)cc2)CC1 [Example 14, 1-(4-(6-Chloro-2-((3R,3aR,6R,6aR)-6-hydroxyhexahydrofuro[3,2-b]furan-3-yloxy)-3H-imidazo[4,5-b]pyridin-5-yl)phenyl)piperidin-4-yl isopropylcarbamate]	578 nM
–	–	O=C(OC1CCN(c2ccc(-c3nc4[nH]c(O[C@@H]5CO[C@H]6[C@@H]5OC[C@H]6O)nc4cc3Cl)cc2)CC1)N1CCOCC1 [Example 15, 1-(4-(6-Chloro-2-((3R,3aR,6R,6aR)-6-hydroxyhexahydrofuro[3,2-b]furan-3-yloxy)-3H-imidazo[4,5-b]pyridin-5-yl)phenyl)piperidin-4-yl morpholine-4-carboxylate]	133 nM
109%	1.85 h	CN(C)C(=O)OC1CCN(c2ccc(-c3nc4[nH]c(O[C@@H]5CO[C@H]6[C@@H]5OC[C@H]6O)nc4cc3Cl)cc2)CC1 [Example 2, 1-(4-(6-Chloro-2-((3R,3aR,6R,6aR)-6-hydroxyhexahydrofuro[3,2-b]furan-3-yloxy)-3H-imidazo[4,5-b]pyridin-5-yl)phenyl)piperidin-4-yl dimethylcarbamate]	32 nM
–	–	O=C(O[C@H]1CC[C@@H](c2ccc(-c3nc4[nH]c(O[C@@H]5CO[C@H]6[C@@H]5OC[C@H]6O)nc4cc3Cl)cc2)CC1)N1CCOCC1 [Example 12, (cis)-4-(4-(6-Chloro-2-((3R,3aR,6R,6aR)-6-hydroxyhexahydrofuro[3,2-b]furan-3-yloxy)-3H-imidazo[4,5-b]pyridin-5-yl)phenyl)cyclohexyl morpholine-4-carboxylate]	1310 nM
117%	0.317 h	O=C(N[C@H]1CC[C@@H](c2ccc(-c3nc4[nH]c(O[C@@H]5CO[C@H]6[C@@H]5OC[C@H]6O)nc4cc3Cl)cc2)CC1)OC1CCCC1 [Example 3, Cyclopentyl (cis)-4-(4-(6-chloro-2-((3R,3aR,6R,6aR)-6-hydroxyhexahydrofuro[3,2-b]furan-3-yloxy)-3H-imidazo[4,5-b]pyridin-5-yl)phenyl)cyclohexylcarbamate]	108 nM
–	–	CCNC(=O)O[C@H]1CC[C@H](c2ccc(-c3nc4[nH]c(O[C@@H]5CO[C@H]6[C@@H]5OC[C@H]6O)nc4cc3Cl)cc2)CC1 [Example 7, (trans)-4-(4-(6-Chloro-2-((3R,3aR,6R,6aR)-6-hydroxyhexahydrofuro[3,2-b]furan-3-yloxy)-3H-imidazo[4,5-b]pyridin-5-yl)phenyl)cyclohexyl ethylcarbamate]	468 nM
–	–	O=C(O[C@H]1CC[C@@H](c2ccc(-c3nc4[nH]c(O[C@@H]5CO[C@H]6[C@@H]5OC[C@H]6O)nc4cc3Cl)cc2)CC1)N1CCCC1 [Example 13, (cis)-4-(4-(6-Chloro-2-((3R,3aR,6R,6aR)-6-hydroxyhexahydrofuro[3,2-b]furan-3-yloxy)-3H-imidazo[4,5-b]pyridin-5-yl)phenyl)cyclohexyl pyrrolidine-1-carboxylate]	2040 nM
